Reference: patent publication EP3009138B1, “MANGIFERA EXTRACT FOR THE MANAGEMENT OF OBESITY AND/OR WEIGHT” (Kodimule, Shyam Prasad, priority 2014, dated 2016)
Marks after values point to notes of the source that are not given here. Values belong to the compound of their own block, whether it stands above or below them.

Columns and labels:
[1] = Hydrogen peroxide (H2O2) scavenging activity; format: biochemical
Experimental: Hydrogen peroxide scavenging activity of the HC was estimated in this study where initially, HC solutions were prepared at different concentrations in distilled water and the resultant solutions were mixed in 0.6 ml of 40 mM H2O2 solution prepared in phosphate buffer (0.1 M pH 7.4) and incubated for 10 min. The absorbance was measured at 230 nm against a blank solution containing H2O2. Similar procedure was repeated for HC, Mangiferin and Quercetin. The amount of hydrogen peroxide radical inhibited was calculated using the following equation. The result is expressed as % H2O2 radical scavenging activity. H2 O2 radical scavenging activity = {(Abs control−Abs sample) × 100; (Abs control)} [formula] where: • Abs control - Absorbance of H2O2 radical • Abs sample - Absorbance of sample extract/ standard (the HC, mangiferin and quercetin)

[2] = Lipid peroxidation inhibitory assay (TBARS); format: biochemical; details: Sample Concentration: 100-500µ g/ml
Experimental: A modified Thiobarbituric acid reactive species (TBARS) assay (Ohkowa et al., 1979) is used to measure lipid peroxidation formed using egg yolk homogenate as lipid rich media (Ruberto et al., 2000).
Take 0.5ml of egg homogenate (10%in distilled water) and 0.1 ml of test sample in the concentration range 100-500µ g/ml in a test tube and volume made up to 1 ml by adding distilled water. Finally add 0.05 ml ferrous sulphate (0.07M) to the above mixture and incubate for 30 min to induce the lipid peroxidation. Thereafter add 1.5 ml of 20% acetic acid (pH 3.5) and 1.5 ml of (0.8%in 1.1% SDS) TBA and 0.05 ml (20%) TCA then heated in boiling water bath for 60 min. After cooling 5 ml of butanol will be added to all the test tubes and centrifuged at 3000 rpm for 10 min. Measure the absorbance of the organic upper layer at 532 nm. The percentage inhibition of lipid peroxidation calculated from the formula, % Inhibition = ((Abcontrol−Abtest sample)*100)/(Abcontrol) [formula] where: • Ab (cont) - is the absorbance of the control • Ab (test sample) - is the absorbance of the test sample /standard Table 12 Lipid peroxidation inhibitory assay test results

[3] = Superoxide Dismutase (SOD) activity / superoxide anion scavenging (NBT/NADH/PMS); format: biochemical; details: 100 µg/ml (method)
Experimental: The superoxide anion scavenging activity of the HC was measured in this test. 1 ml (156 µM) of Nitro blue tetrazolium (NBT), 1 ml (468 µM) of nicotinamide adenine dinucleotide (NADH) and 3 ml of the HC at 100 µg/ml concentration were admixed in phosphate buffer (pH 7.4). The reaction was started by adding 100 µl of phenazine methosulfate (PMS) (0.18mg/ml) and the mixture was incubated at 25°C for 5 min followed by measuring the absorbance at 560 nm. Similar solutions were prepared for quercetin and mangiferin and the percentage of inhibition was calculated by using the formula provided herein-below; the result was expressed as % superoxide dismutase scavenging activity. % superoxide dismutase inhibition = {(Abs control−Abs sample) × 100; Abs control} [formula] where: • Abs control - Absorbance of control • Abs sample - Absorbance of sample extract/ standard (the HC, mangiferin and quercetin)

high fat diet fed rats = test: Anti-obesity activity in high fat diet fed rats; format: in vivo, Male Wistar rats; details: male rats, Orlistat 30 mg/kg (Group III)
Experimental: Objective: The objective was to investigate the effect of the HC against high fat diet fed rats. Animals: Male Wistar rats (160 to 200 g); No of animals: 36; Housing: 3/ cage, 12 hrs light/dark cycle; Temperature: 25±2°c; Model & Composition of the Diet: High fat diet in rats: 25% Lard, 5% Soyabean oil; 5% starch; 65% Normal commercial available rat feed; Groups: Male Wistar rats were divided into six groups with six animals in each group [table]

[4] = target: T1, Porcine Pancreatic Lipase (Sus scrofa, UniProt P00591); test: Anti-lipase assay (triolein emulsion); format: biochemical; details: Sample Concentration: 1.2 mg/ml; 37 °C, 30 min
T1 sequence (P00591 1-450): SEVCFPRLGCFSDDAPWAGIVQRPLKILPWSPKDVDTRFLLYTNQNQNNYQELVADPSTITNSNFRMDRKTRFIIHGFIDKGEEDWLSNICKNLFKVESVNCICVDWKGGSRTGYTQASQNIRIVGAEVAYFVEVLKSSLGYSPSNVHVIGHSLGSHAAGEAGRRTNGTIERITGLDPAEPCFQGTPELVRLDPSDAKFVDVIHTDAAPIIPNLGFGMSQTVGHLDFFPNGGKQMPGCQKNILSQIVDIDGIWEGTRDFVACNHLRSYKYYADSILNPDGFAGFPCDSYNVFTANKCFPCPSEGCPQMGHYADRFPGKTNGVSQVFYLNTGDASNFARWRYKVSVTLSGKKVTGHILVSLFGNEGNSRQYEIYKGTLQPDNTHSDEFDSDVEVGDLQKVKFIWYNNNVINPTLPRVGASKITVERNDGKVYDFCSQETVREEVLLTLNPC
Experimental: A suspension containing 1% (V/V) of triolein and 1% (V/V) of tween 40 in 0.1M phosphate buffer (pH-8) was prepared and emulsified. The assay was initiated by adding 800µl of the Triolein emulsion to 200µl of Porcine Pancreatic Lipase (0.5 g Pancreatic Lipase in 15 ml of 0.1 M phosphate buffer at pH-8) and 200 µl of the HC extract (100 µg/ml concentration). The resultant mixture was mixed and the absorbance was measured immediately at 450 nm (T^0). The mixtures were then incubated at 37 °C for 30 min and the absorption was measured at 450 nm (T^30). Inhibition % = {A(cont)−A(test) × 100; A(cont)} [formula] where: • A(cont) - is the absorbance of the control (TC^0-TC^30) • A(test) - is the absorbance of the sample test /standard (T^0-T^30) (the HC, mangiferin and quercetin)

Compound: O=c1c(O)c(-c2ccc(O)c(O)c2)oc2cc(O)cc(O)c12 [Quercetin (Standard), Quercetin]
H2O2 scavenging activity ([1]; 10 µg/ml): 5.6% | H2O2 scavenging activity ([1]; 20 µg/ml): 14.55% | H2O2 scavenging activity ([1]; 30 µg/ml): 18.86% | H2O2 scavenging activity ([1]; 40 µg/ml): 33.96% | Lipid peroxidation inhibitory assay % inhibition [2]: 53.44% | SOD activity % Inhibition [3]: 51.03%

Compound: CCCCCCCCCCC[C@@H](C[C@@H]1OC(=O)[C@H]1CCCCCC)OC(=O)[C@H](CC(C)C)NC=O [Orlistat]
Initial weight (high fat diet fed rats; baseline, in g (unit assumed)): 182.00±0.96 | Atherogenic Index (high fat diet fed rats): 1.39±0.15***^b | Average food intake (high fat diet fed rats): 13.45±0.28^nsb g/rat | BAT (high fat diet fed rats): 0.28± 0.01^nsb | Difference in body weight gain (high fat diet fed rats): 79.82±2.58***^b | Epididymal fat pad Left (high fat diet fed rats): 0.52± 0.03^nsb | Epididymal fat pad Right (high fat diet fed rats): 0.55± 0.02^nsb | Fecal fatty acid estimation (high fat diet fed rats): 4.1±0.26*^b | Insulin (high fat diet fed rats): 0.15±0.005^nsb mU/L | Liver (organ weight) (high fat diet fed rats): 2.8±0.08 ***^b | Liver triglycerides (high fat diet fed rats): 87.77±2.28*^b | Mesenteric fat (high fat diet fed rats): 1.02±0.07 ^nsb | Perirenal fat pad tissue Left (high fat diet fed rats): 0.77± 0.08*^b | Perirenal fat pad tissue Right (high fat diet fed rats): 0.77±0.08*^b | serum Glucose (high fat diet fed rats): 92.00±2.89**^b mg/dL | Final weight (high fat diet fed rats; in g (unit assumed)): 261.80±2.53 | HDL-c (high fat diet fed rats; serum): 21.72±1.22**^b mg/dL | LDL-c (high fat diet fed rats; serum): 13.20±1.71**^b mg/dL | Total cholesterol (high fat diet fed rats; serum): 50.91±0.62***^b mg/dL | Triglyceride (high fat diet fed rats; serum): 79.96±1.13***^b mg/dL | inhibition at 1200 µg/mL [4]: 75.3%

inhibition at 1200 µg/mL [4]: 41.8%
Compound: O=c1c2cc(O)c(O)cc2oc2cc(O)c([C@@H]3O[C@H](CO)[C@@H](O)[C@H](O)[C@H]3O)c(O)c12 [Mangiferin 98%, Mangiferin]
